Results taken from PubChem BioAssay (NCI).
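Growth conditions: 96-well plates. Treatment: test compound, 48 hours, 5 concentrations. Analysis: linear interpolation between bracketing concentrations; unreached endpoints set to highest concentration. GI50 = concentration required for 50% inhibition of growth. TGI: concentration producing complete growth inhibition.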

Tests used:
Experiment in all cases: NCI anticancer screen, dose series, 48 h
SF-539 CNS = tested on: SF-539 CNS
MALME-3M melanoma = tested on: MALME-3M melanoma
EKVX NSCLC = tested on: EKVX NSCLC
SR leukemia = tested on: SR leukemia
NCI-H226 lung = tested on: NCI-H226 lung
OVCAR-8 ovarian = tested on: OVCAR-8 ovarian
UACC-257 melanoma = tested on: UACC-257 melanoma
KM12 colon = tested on: KM12 colon
MDA-MB-435 = tested on: MDA-MB-435
CAKI-1 renal = tested on: CAKI-1 renal
HCC-2998 colon = tested on: HCC-2998 colon
HS 578T breast = tested on: HS 578T breast
LOX IMVI melanoma = tested on: LOX IMVI melanoma
HOP-62 NSCLC = tested on: HOP-62 NSCLC
SK-OV-3 ovarian = tested on: SK-OV-3 ovarian
OVCAR-4 ovarian = tested on: OVCAR-4 ovarian
HOP-92 NSCLC = tested on: HOP-92 NSCLC
NCI/ADR-RES ovarian = tested on: NCI/ADR-RES ovarian
SNB-19 CNS = tested on: SNB-19 CNS
SF-295 CNS = tested on: SF-295 CNS
BT-549 breast = tested on: BT-549 breast
ACHN renal = tested on: ACHN renal
MDA-MB-231 breast = tested on: MDA-MB-231 breast
SF-268 CNS = tested on: SF-268 CNS
HL-60(TB) leukemia = tested on: HL-60(TB) leukemia
HT29 colon = tested on: HT29 colon
COLO 205 colon = tested on: COLO 205 colon
CCRF-CEM leukemia = tested on: CCRF-CEM leukemia
RPMI-8226 leukemia = tested on: RPMI-8226 leukemia
SK-MEL-5 melanoma = tested on: SK-MEL-5 melanoma
HCT-116 colon = tested on: HCT-116 colon
PC-3 prostate = tested on: PC-3 prostate
NCI-H23 lung = tested on: NCI-H23 lung
A549 NSCLC = tested on: A549 NSCLC
UO-31 renal = tested on: UO-31 renal
MCF7 breast = tested on: MCF7 breast
OVCAR-5 ovarian = tested on: OVCAR-5 ovarian
SK-MEL-28 melanoma = tested on: SK-MEL-28 melanoma
HCT-15 colon = tested on: HCT-15 colon
K-562 leukemia = tested on: K-562 leukemia
A498 renal = tested on: A498 renal
TK-10 renal = tested on: TK-10 renal
SN12C renal = tested on: SN12C renal
U251 CNS = tested on: U251 CNS
SW-620 colon = tested on: SW-620 colon
M14 melanoma = tested on: M14 melanoma
DU-145 prostate = tested on: DU-145 prostate
IGROV1 ovarian = tested on: IGROV1 ovarian
T-47D breast = tested on: T-47D breast
786-0 renal = tested on: 786-0 renal
RXF 393 renal = tested on: RXF 393 renal
SNB-75 CNS = tested on: SNB-75 CNS
NCI-H522 lung = tested on: NCI-H522 lung
UACC-62 melanoma = tested on: UACC-62 melanoma
MOLT-4 leukemia = tested on: MOLT-4 leukemia
OVCAR-3 ovarian = tested on: OVCAR-3 ovarian
NCI-H460 lung = tested on: NCI-H460 lung

## CC(C)(O)CNc1nc(Nc2ccnc(C(F)(F)F)c2)nc(-c2cccc(C(F)(F)F)n2)n1
SF-539 CNS
  GI50: 16.6 µM
  TGI: 42.7 µM
MALME-3M melanoma
  GI50: 21.1 µM
  TGI: 43.3 µM
EKVX NSCLC
  GI50: 21.4 µM
  TGI: 64.1 µM
SR leukemia
  GI50: 18.3 µM
  TGI: 90.9 µM
NCI-H226 lung
  GI50: 20.8 µM
  TGI: 58.2 µM
OVCAR-8 ovarian
  GI50: 26.3 µM
  TGI: 84.8 µM
UACC-257 melanoma
  GI50: 21.7 µM
  TGI: 43.6 µM
KM12 colon
  GI50: 16.4 µM
  TGI: 43.7 µM
MDA-MB-435
  GI50: 15.8 µM
  TGI: 39.9 µM
CAKI-1 renal
  GI50: 29.6 µM
  TGI: > 100 µM
HCC-2998 colon
  GI50: 20.3 µM
  TGI: 43.7 µM
HS 578T breast
  GI50: 27.8 µM
  TGI: 75.9 µM
LOX IMVI melanoma
  GI50: 17.3 µM
  TGI: 32.6 µM
HOP-62 NSCLC
  GI50: 21.4 µM
  TGI: 52.8 µM
SK-OV-3 ovarian
  GI50: 26.6 µM
  TGI: 68.3 µM
OVCAR-4 ovarian
  GI50: 23.9 µM
  TGI: 86.9 µM
HOP-92 NSCLC
  GI50: 23.4 µM
  TGI: 74.2 µM
NCI/ADR-RES ovarian
  GI50: 17.1 µM
  TGI: 53.8 µM
SNB-19 CNS
  GI50: 34.4 µM
  TGI: > 100 µM
SF-295 CNS
  GI50: 17.1 µM
  TGI: 35.3 µM
BT-549 breast
  GI50: 16.7 µM
  TGI: 39.7 µM
ACHN renal
  GI50: 23.5 µM
  TGI: 66.7 µM
MDA-MB-231 breast
  GI50: 19.1 µM
  TGI: 45.6 µM
SF-268 CNS
  GI50: 23.1 µM
  TGI: 76.4 µM
HL-60(TB) leukemia
  GI50: 21.1 µM
  TGI: 58.2 µM
HT29 colon
  GI50: 17.1 µM
  TGI: 41.2 µM
COLO 205 colon
  GI50: 18.4 µM
  TGI: 38.7 µM
CCRF-CEM leukemia
  GI50: 21.3 µM
  TGI: 73.9 µM
RPMI-8226 leukemia
  GI50: 18.5 µM
  TGI: 56.1 µM
SK-MEL-5 melanoma
  GI50: 13.2 µM
  TGI: 26.3 µM
HCT-116 colon
  GI50: 17.6 µM
  TGI: 44.5 µM
PC-3 prostate
  GI50: 27.4 µM
  TGI: > 100 µM
NCI-H23 lung
  GI50: 18.1 µM
  TGI: 42.8 µM
A549 NSCLC
  GI50: 19.5 µM
  TGI: 39.4 µM
UO-31 renal
  GI50: 19.9 µM
  TGI: 50.4 µM
MCF7 breast
  GI50: 18.2 µM
  TGI: 42.5 µM
OVCAR-5 ovarian
  GI50: 22.5 µM
  TGI: 63 µM
SK-MEL-28 melanoma
  GI50: 17.8 µM
  TGI: 36.2 µM
HCT-15 colon
  GI50: 19.7 µM
  TGI: 79.8 µM
K-562 leukemia
  GI50: 29.4 µM
  TGI: > 100 µM
A498 renal
  GI50: 16.1 µM
  TGI: 37.2 µM
TK-10 renal
  GI50: 26.6 µM
  TGI: 82.4 µM
SN12C renal
  GI50: 19.1 µM
  TGI: 54.4 µM
U251 CNS
  GI50: 25.9 µM
  TGI: 78.2 µM
SW-620 colon
  GI50: 26.7 µM
  TGI: 86.5 µM
M14 melanoma
  GI50: 16.1 µM
  TGI: 34.6 µM
DU-145 prostate
  GI50: 21.6 µM
  TGI: 67.8 µM
IGROV1 ovarian
  GI50: 28.6 µM
  TGI: 74.5 µM
T-47D breast
  GI50: 17.7 µM
  TGI: 56.7 µM
786-0 renal
  GI50: 18.6 µM
  TGI: 78.5 µM
RXF 393 renal
  GI50: 20.7 µM
  TGI: 48.4 µM
SNB-75 CNS
  GI50: 15.9 µM
  TGI: 42.7 µM
NCI-H522 lung
  GI50: 18.6 µM
  TGI: 49.3 µM
UACC-62 melanoma
  GI50: 16.4 µM
  TGI: 32.6 µM
MOLT-4 leukemia
  GI50: 13.7 µM
  TGI: 41.8 µM
OVCAR-3 ovarian
  GI50: 20.1 µM
  TGI: 52 µM
NCI-H460 lung
  GI50: 23.8 µM
  TGI: 60.8 µM
